Each structure is given as a SMILES string. Like-named read-outs stand apart in the source and are kept apart here.

The results in this text go back to patent US9822131B2, “Certain chemical entities, compositions and methods” (Intellikine LLC, priority 2008, dated 2017).

Data set [1] has as its system established type II collagen induced arthritis. Kind of data set: Rat established type II collagen induced arthritis assay. The data set is classed as in vivo. Particulars: oral. The method, then: In order to examine the dose responsive efficacy of the compounds of the present invention in inhibiting the inflammation, cartilage destruction and bone resorption of 7 day established type II collagen induced arthritis in rats, compounds were administered orally daily or twice daily for 6 days.
Female Lewis rats were anesthetized and given collagen injections prepared and administered as described previously on day 0. On day 6, animals were anesthetized and given a second collagen injection. Caliper measurements of normal (pre-disease) right and left ankle joints were performed on day 9. On days 10-11, arthritis typically occurred and rats were randomized into treatment groups. Randomization was performed after ankle joint swelling was obviously established and there was good evidence of bilateral disease.
After an animal was selected for enrollment in the study, treatment was initiated by the oral route. Animals were given vehicle, control (Enbrel) or compound doses, twice daily or once daily (BID or QD respectively). Dosing was administered on days 1-6 using a volume of 2.5 ml/kg (BID) or 5 ml/kg (QD) for oral solutions. Rats were weighed on days 1-7 following establishment of arthritis and caliper measurements of ankles taken every day. Final body weights were taken on day 7 and animals were euthanized.

The subject of data set [2] is collagen induced developing arthritis model. Kind of data set: Rat developing type II collagen induced arthritis assay. The data set is classed as in vivo. The method, then: In order to study the effects of the compounds of the present invention on the autoimmune disease arthritis, a collagen induced developing arthritis model was used. Female Lewis rats were given collagen injections at day 0. Bovine type II collagen was prepared as a 4 mg/ml solution in 0.01N acetic acid. Equal volumes of collagen and Freund's incomplete adjuvant were emulsified by hand mixing until a bead of the emulsified material held its form in water. Each rodent received a 300 μl injection of the mixture at each injection time spread over three subcutaneous sites on the back.
Oral compound administration began on day 0 and continued through day 16 with vehicle (5% NMP, 85% PEG 400, 10% Solutol) or compounds of the present invention in vehicle or control (e.g. methotrexate) at 12 hour intervals daily. Rats were weighed on days 0, 3, 6, 9-17 and caliper measurements of ankles taken on days 9-17. Final body weights were taken, and then the animals were euthanized on day 17. After euthanization, blood was drawn and hind paws and knees were removed. Blood was further processed for pharmacokinetics experiments as well as an anti-type II collagen antibody ELISA assay. Hind paws were weighed and then with the knees preserved in 10% formalin. The paws and knees were subsequently processed for microcopy. Livers, spleen and thymus were also weighed. Sciatic nerves were prepared for histopathology.
Knee and ankle joints were fixed for 1-2 days and decalcified for 4-5 days. Ankle joints were cut in half longitudinally, knees were cut in half along the frontal plane. Joints were then processed, embedded, sectioned and stained with toluidine blue. Scoring of the joints was done according to the following criteria:
Percent inhibition of paw weight and AUC was calculated using the following formula: % Inhibition=A−B/A×100 A=Mean Disease Control−Mean Normal B=Mean Treated−Mean Normal

The test system of data set [3] is adjuvant induced arthritis model. As to the kind of experiment: Adjuvant induced arthritis assay. The data set is classed as in vivo. The procedure: Isoflurane-anesthetized Lewis rats (200-250 g) were implanted with an intrathecal (IT) catheter. After a 6 d recovery period, all animals except those that appeared to have sensory or motor abnormalities (fewer than 5% of the total number) were used for experiments. For IT administration, 10 μl of drug or saline followed by 10 μl of isotonic saline was injected through the catheter.
Lewis rats were immunized at the base of the tail with 0.1 ml of complete Freund's adjuvant (CFA) on day 0 several days after catheter implantation (n=6/group). Drug (e.g. one or more compounds of the present invention or vehicle) treatment was generally started on day 8 and continued daily until day 20. Clinical signs of arthritis generally begin on day 10, and paw swelling was determined every second day by water displacement plethysmometry.

The target of a further data set is T1, PI3K δ (Homo sapiens, UniProt O00329).
T1 construct: purchased Upstate
Kind of data set: PI3K δ in vitro kinase inhibition assay. The data set is classed as biochemical.

A further data set deals with T2, PI3K α (Homo sapiens, UniProt P42336).
T2 construct: purchased Upstate
Kind of data set: PI3K α in vitro kinase inhibition assay. The data set is classed as biochemical.

A further data set deals with Balb/c splenic B cells. As to the kind of experiment: B cell activation and proliferation assay (Alamar Blue). The data set is classed as cell-based. Particulars: Mus musculus. A general note: The colour change of resazurin is a common sign of viable cells or microbes.
Another data set concerns the target T3, PI3K γ (Homo sapiens, UniProt P48736).
T3 construct: purchased Sigma
As to the kind of experiment: PI3K γ in vitro kinase inhibition assay. In kind it is biochemical.

For the next data set, the target named is T4, PI3K β (Homo sapiens, UniProt P42338).
T4 construct: purchased Upstate
Kind of data set: PI3K β in vitro kinase inhibition assay. In kind it is biochemical.

Another data set has as its system basophilic granulocytes. Kind of data set: Basotest assay. The data set is classed as cell-based. Conditions: heparinized whole blood, dust mite or grass extract allergen. The procedure: The baseotest assay is performed using Orpegen Pharma Basotest reagent kit. Heparinized whole blood is pre-incubated with test compound or solvent at 37 C for 20 min. Blood is then incubated with assay kit stimulation buffer (to prime cells for response) followed by allergen (dust mite extract or grass extract) for 20 min. The degranulation process is stopped by incubating the blood samples on ice. The cells are then labeled with anti-IgE-PE to detect basophilic granulocytes, and anti-gp53-FITC to detect gp53 (a glycoprotein expressed on activated basophils). After staining red blood cells are lysed by addition of Lysing Solution. Cells are washed, and analyzed by flow cytometry.

The mark [4] stands for this setting: read-out: B cell proliferation EC50.

T1 sequence (O00329 whole entry): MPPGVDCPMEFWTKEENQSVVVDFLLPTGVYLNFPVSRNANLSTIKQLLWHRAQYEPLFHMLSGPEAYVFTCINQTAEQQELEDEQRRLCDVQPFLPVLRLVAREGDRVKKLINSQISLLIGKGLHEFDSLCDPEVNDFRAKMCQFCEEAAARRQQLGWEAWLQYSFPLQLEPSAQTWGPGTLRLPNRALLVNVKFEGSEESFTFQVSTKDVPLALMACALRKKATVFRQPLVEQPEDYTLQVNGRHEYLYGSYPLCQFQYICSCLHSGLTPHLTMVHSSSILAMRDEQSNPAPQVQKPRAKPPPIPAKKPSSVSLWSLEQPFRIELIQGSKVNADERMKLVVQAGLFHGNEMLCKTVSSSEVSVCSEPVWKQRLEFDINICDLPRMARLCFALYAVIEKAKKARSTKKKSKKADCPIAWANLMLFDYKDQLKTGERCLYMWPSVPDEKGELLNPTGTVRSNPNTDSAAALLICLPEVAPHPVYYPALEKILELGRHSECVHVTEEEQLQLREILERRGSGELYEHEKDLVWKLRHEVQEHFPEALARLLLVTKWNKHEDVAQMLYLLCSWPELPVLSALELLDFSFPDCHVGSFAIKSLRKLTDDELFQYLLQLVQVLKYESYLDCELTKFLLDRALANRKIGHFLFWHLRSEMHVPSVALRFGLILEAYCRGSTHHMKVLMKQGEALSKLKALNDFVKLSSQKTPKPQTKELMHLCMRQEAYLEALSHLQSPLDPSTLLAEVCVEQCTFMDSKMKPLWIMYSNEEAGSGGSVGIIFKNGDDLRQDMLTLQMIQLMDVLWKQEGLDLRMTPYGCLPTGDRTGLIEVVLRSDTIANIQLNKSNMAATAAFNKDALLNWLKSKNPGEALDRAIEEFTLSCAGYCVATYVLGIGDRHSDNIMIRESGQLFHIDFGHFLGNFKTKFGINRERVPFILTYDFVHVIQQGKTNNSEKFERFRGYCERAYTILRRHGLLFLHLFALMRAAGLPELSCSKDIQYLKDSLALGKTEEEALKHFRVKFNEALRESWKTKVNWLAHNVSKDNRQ
T1 sequence (P27986 whole entry partner): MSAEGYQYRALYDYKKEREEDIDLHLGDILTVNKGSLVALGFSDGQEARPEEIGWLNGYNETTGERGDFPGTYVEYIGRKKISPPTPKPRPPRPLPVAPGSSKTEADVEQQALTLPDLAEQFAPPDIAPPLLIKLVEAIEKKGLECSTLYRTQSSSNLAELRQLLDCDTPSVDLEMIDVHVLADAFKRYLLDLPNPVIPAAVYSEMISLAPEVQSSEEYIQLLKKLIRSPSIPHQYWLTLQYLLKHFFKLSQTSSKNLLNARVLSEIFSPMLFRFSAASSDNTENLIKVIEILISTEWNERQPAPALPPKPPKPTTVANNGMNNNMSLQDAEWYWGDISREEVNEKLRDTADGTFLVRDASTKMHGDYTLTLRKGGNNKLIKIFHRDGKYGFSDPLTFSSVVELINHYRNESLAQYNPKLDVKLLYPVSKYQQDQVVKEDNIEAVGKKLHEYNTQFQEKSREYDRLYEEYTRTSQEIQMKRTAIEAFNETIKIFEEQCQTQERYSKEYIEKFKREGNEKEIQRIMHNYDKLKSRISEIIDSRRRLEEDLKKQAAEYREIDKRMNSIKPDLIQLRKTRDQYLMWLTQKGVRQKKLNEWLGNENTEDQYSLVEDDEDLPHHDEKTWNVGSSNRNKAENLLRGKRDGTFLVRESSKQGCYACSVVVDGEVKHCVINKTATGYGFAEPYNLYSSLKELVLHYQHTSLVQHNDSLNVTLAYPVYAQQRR
T4 sequence (P42338 whole entry): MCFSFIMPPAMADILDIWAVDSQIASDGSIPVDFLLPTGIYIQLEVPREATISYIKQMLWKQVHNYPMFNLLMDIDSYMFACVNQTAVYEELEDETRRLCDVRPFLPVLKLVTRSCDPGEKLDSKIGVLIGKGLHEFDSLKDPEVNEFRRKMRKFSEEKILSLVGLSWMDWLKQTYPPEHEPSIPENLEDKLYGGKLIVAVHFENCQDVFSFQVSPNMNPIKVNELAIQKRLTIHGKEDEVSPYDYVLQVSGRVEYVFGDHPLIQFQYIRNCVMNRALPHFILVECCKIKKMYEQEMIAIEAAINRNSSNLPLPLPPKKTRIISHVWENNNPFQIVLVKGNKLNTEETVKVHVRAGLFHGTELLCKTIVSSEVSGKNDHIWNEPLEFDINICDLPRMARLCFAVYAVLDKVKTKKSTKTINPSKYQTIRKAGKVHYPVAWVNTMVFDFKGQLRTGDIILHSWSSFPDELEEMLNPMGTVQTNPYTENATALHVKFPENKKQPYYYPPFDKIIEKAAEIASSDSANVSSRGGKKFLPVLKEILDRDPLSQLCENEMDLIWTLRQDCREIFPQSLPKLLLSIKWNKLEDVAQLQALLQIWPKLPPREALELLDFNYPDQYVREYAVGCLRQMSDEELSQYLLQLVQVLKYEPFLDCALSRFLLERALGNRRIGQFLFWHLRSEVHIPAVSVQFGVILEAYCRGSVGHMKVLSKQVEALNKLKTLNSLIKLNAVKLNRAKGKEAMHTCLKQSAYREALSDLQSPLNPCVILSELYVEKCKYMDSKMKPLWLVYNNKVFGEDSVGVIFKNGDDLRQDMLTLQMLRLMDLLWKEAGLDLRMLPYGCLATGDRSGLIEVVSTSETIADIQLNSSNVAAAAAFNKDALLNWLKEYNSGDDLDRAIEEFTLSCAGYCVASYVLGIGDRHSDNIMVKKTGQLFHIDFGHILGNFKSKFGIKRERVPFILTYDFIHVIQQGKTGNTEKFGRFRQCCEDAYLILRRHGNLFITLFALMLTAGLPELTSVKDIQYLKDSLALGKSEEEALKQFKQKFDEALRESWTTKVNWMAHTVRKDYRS
T4 sequence (P27986 whole entry partner): as the sequence (P27986 whole entry partner) above
T2 sequence (P42336 whole entry): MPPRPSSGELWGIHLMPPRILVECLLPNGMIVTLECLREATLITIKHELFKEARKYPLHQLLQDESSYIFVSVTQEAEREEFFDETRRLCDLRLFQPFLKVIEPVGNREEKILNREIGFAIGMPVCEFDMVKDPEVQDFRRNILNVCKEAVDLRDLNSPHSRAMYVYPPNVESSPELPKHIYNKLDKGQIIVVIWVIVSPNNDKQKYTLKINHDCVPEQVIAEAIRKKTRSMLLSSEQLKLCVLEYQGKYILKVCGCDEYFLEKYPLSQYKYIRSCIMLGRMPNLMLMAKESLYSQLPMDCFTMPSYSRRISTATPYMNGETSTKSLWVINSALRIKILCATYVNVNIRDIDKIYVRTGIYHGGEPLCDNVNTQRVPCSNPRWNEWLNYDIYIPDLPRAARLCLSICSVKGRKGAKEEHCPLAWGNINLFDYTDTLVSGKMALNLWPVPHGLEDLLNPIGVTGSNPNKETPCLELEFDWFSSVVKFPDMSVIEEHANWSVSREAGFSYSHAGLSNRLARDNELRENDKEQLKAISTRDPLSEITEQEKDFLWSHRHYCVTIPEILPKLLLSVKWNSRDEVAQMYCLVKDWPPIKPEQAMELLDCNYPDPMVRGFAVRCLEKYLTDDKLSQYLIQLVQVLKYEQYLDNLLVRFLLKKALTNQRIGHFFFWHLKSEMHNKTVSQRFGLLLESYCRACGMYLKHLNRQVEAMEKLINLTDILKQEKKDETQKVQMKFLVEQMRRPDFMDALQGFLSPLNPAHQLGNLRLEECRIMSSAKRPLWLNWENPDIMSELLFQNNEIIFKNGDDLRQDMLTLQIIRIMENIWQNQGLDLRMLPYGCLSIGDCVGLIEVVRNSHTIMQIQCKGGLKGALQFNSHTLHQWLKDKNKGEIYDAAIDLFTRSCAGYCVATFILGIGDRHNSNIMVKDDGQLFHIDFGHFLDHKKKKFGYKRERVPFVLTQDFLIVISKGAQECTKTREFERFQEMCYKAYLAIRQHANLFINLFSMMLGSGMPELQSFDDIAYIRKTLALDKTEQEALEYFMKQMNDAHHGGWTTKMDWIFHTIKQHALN
T2 sequence (P27986 whole entry partner): as the sequence (P27986 whole entry partner) above
T3 sequence (P48736 whole entry): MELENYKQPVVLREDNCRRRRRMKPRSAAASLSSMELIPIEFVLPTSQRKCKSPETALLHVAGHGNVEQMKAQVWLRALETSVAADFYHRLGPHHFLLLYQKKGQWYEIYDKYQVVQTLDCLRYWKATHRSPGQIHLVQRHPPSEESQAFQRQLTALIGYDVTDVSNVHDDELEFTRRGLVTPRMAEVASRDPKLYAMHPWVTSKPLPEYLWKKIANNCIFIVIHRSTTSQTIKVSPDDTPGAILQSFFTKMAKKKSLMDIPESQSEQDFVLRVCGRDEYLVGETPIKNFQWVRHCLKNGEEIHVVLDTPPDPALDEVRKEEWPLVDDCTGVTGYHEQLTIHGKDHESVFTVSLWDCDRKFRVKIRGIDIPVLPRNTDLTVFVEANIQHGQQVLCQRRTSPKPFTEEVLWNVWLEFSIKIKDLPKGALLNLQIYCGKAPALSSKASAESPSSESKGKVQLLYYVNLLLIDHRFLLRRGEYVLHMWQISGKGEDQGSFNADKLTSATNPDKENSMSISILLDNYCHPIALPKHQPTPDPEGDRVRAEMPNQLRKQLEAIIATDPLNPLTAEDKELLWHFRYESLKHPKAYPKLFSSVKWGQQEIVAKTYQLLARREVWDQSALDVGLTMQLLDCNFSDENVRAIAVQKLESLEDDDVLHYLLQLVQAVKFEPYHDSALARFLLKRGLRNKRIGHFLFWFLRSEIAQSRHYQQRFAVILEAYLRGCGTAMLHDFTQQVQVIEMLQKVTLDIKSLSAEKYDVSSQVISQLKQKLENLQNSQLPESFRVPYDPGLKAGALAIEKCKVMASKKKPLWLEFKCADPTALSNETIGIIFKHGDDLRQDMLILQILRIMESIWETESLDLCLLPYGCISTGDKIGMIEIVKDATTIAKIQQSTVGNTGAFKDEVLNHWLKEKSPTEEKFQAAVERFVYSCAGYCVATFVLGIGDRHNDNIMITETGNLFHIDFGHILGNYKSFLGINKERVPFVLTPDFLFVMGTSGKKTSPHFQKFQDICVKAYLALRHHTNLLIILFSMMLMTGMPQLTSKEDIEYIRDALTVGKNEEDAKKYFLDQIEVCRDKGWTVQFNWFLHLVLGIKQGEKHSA
Experimental for Balb/c splenic B cells: The assay is performed in a 96 well microtiter plate using Alamar Blue reduction. Balb/c splenic B cells are purified over a Ficoll-Paque™ PLUS gradient followed by magnetic cell separation using a MACS B cell Isolation Kit (Miletenyi). Cells are plated in 90 ul at 50,000 cells/well in B Cell Media (RPMI+10% FBS+Penn/Strep+50 uM bME+5 mM HEPES). A compound disclosed herein is diluted in B Cell Media and added in a 10 ul volume. Plates are incubated for 30 min at 37 C and 5% CO2 (0.2% DMSO final concentration). A 50 ul B cell stimulation cocktail is then added containing either 10 ug/ml LPS or 5 ug/ml F(ab′)2 Donkey anti-mouse IgM plus 2 ng/ml recombinant mouse IL4 in B Cell Media. […] A volume of 15 uL of Alamar Blue reagent is added to each well and plates are incubated for 5 hours at 37 C and 5% CO2. Alamar Blue fluoresce is read at 560Ex/590Em, and IC50 or EC50 values are calculated using GraphPad Prism 5.
Experimental for PI3K α: (§1) IC50 values are measured using either a standard TLC assay for lipid kinase activity (described below) or a high-throughput membrane capture assay. Kinase reactions are performed by preparing a reaction mixture containing kinase, inhibitor (2% DMSO final concentration), buffer (25 mM HEPES, pH 7.4, 10 mM MgCl2), and freshly sonicated phosphatidylinositol (100 μg/ml). Reactions are initiated by the addition of ATP containing 10 μCi of γ-32P-ATP to a final concentration 10 or 100 μM and allowed to proceed for 5 minutes at room temperature. For TLC analysis, reactions are then terminated by the addition of 105 μl 1N HCl followed by 160 μl CHCl3:MeOH (1:1). The biphasic mixture is vortexed, briefly centrifuged, and the organic phase is transferred to a new tube using a gel loading pipette tip precoated with CHCl3. This extract is spotted on TLC plates and developed for 3-4 hours in a 65:35 solution of n-propanol:1M acetic acid. The TLC plates are then dried, exposed to a phosphorimager screen (Storm, Amersham), and quantitated.
(§2) Briefly, the assay is a time resolved FRET assay that indirectly measures PIP3 product formed by the activity of a PI3-K. The kinase reaction is performed in a microtiter plate (e.g., a 384 well microtiter plate). The total reaction volume is approximately 20 ul per well. In the first step, each well receives 2 ul of test compound in 20% dimethylsulphoxide resulting in a 2% DMSO final concentration. Next, approximately 14.5 ul of a kinase/PIP2 mixture (diluted in 1× reaction buffer) is added per well for a final concentration of 0.25-0.3 ug/ml kinase and 10 uM PIP2. […] To start the reaction, 3.5 ul of ATP (diluted in 1× reaction buffer) is added per well for a final concentration of 10 uM ATP. The plate is sealed and incubated for 1 hour at room temperature. The reaction is stopped by adding 5 ul of Stop Solution per well and then 5 μl of Detection Mix is added per well. The plate is sealed, incubated for 1 hour at room temperature, and then read on an appropriate plate reader. Data is analyzed and IC50s are generated using GraphPad Prism 5.
Experimental for PI3K β: as §1, §2
Experimental for PI3K γ: as §1, §2
Experimental for PI3K δ: as §1, §2

As to `CC(=O)Nc1nc2ccc(-c3nn(Cc4cc5cccc(C)c5c(=O)n4-c4ccccc4C)c4ncnc(N)c34)cc2s1` [#53], the “mean ankle diameter increase over time” value was “significant reduction” in data set [1] (once daily dosage, FIG. 8) and “significant reduction” in data set [1] (twice daily dosage, FIG. 9). Also, the “ankle histopathology, all categories” value in data set [2] (60 mg/kg, FIG. 4) is recorded as “statistically significant reduction in all categories”. In addition, the “serum anti-type II collagen levels” value in [2] (10, 20, and 60 mg/kg dosage levels, FIG. 6) is reported as “significant reduction”. In [2] (10, 30, and 60 mg/kg at 12 hour intervals, oral, relative to vehicle or methotrexate control), the “arthritis induced ankle diameter increase over time” value is “significant reduction”. The knee histopathology entry in data set [2] (FIG. 5) is “dose dependent reduction”. For the same compound, the “ankle histopathology (inflammation, pannus, cartilage damage, bone resorption)” value in [2] (oral, 12 hour intervals, FIG. 4) is listed as “significant reduction in one or more categories”. Also, in data set [3] (FIG. 10), the “average paw volume increase” value was “dose dependent reduction”. In addition, the “toxicity or other adverse reaction as measured by weight loss” value in data set [3] (FIG. 11, average weight over time) is “does not exhibit toxicity or other adverse reaction”.
Take `Cc1ccccc1-n1c(Cn2nc(I)c3c(N)ncnc32)nc2nccc(C)c2c1=O` [Compound 199]: the IC50 (usually the concentration that gives 50% inhibition) against PI3K δ is under 1 µM; against PI3K α, over 10 µM; on PI3K γ it was under 10 µM; against PI3K β it was over 10 µM. Further, the EC50 in the data set on Balb/c splenic B cells (setting [4]) was under 100 nM.
Consider `Cc1ccccc1-n1c(Cn2nc(-c3cccc(O)c3)c3c(N)ncnc32)nc2c(C)nn(C)c2c1=O` [Compound 217], for which the concentration for half-maximal inhibition (IC50) on PI3K δ is under 10 µM; against PI3K α, over 10 µM; against PI3K γ, over 10 µM; on PI3K β, over 10 µM. For the same compound, the EC50 in the data set with Balb/c splenic B cells (setting [4]) was under 10000 nM.
As for `Cc1ccccc1-n1c(Cn2nc(Cl)c3c(N)ncnc32)nc2scc(C)c2c1=O` [Compound 249], the concentration for half-maximal inhibition (IC50) against PI3K δ is under 0.1 µM; on PI3K α, over 10 µM; on PI3K γ it was under 1 µM; on PI3K β it was over 10 µM. Moreover, the EC50 in the data set with Balb/c splenic B cells (setting [4]) was under 100 nM.
On to `Cc1ccccc1-n1c(Cn2nc(Cl)c3c(N)ncnc32)nc2nccc(C)c2c1=O` [Compound 203], for which the IC50 against PI3K δ was under 0.1 µM; on PI3K α, over 10 µM; against PI3K γ, under 10 µM; at PI3K β, over 10 µM. Also, the EC50 with Balb/c splenic B cells (setting [4]) was under 1000 nM.
With `CC(=O)Nc1nc2ccc(-c3nn(Cc4cc5cccc(C)c5c(=O)n4-c4ccccc4C)c4ncnc(N)c34)cc2s1` [Compound 53], the “inhibition of allergen induced activation of basophilic granulocytes” value with basophilic granulocytes is on record as “sub micromolar range”. Further, the EC50 in the data set with Balb/c splenic B cells (read-out: B cell proliferation EC50 (nM)) is under 100 nM.
For `Cc1csc2nc(Cn3nc(-c4cc(O)cc(F)c4)c4c(N)ncnc43)n(-c3ccccc3Cl)c(=O)c12` [Compound 296], the half-maximal inhibitory concentration (IC50) at PI3K δ was under 0.1 µM; at PI3K α, under 10 µM; against PI3K γ, over 10 µM; against PI3K β, under 1 µM. Moreover, the EC50 in the data set on Balb/c splenic B cells (setting [4]) is under 100 nM.
As for `Cc1cccnc1-n1c(Cn2nc(-c3cc(O)cc(F)c3)c3c(N)ncnc32)nc2scc(C)c2c1=O` [Compound 297], the IC50 on PI3K δ was under 0.1 µM; against PI3K α, over 10 µM; on PI3K γ, over 10 µM; against PI3K β, under 10 µM. Moreover, the EC50 with Balb/c splenic B cells (setting [4]) is under 100 nM.
For `Cc1csc2nc(Cn3nc(C#C[C@@H](C)O)c4c(N)ncnc43)n(-c3ncccc3C(F)(F)F)c(=O)c12` [Compound 282], the IC50 on PI3K δ was under 0.1 µM; against PI3K α, over 10 µM; against PI3K γ, under 10 µM; against PI3K β, under 10 µM. In the data set with Balb/c splenic B cells (setting [4]), the EC50 is under 100 nM.
With `Cc1csc2nc(Cn3nc(C#C[C@@H](C)O)c4c(N)ncnc43)n(-c3ccccc3F)c(=O)c12` [Compound 261], the IC50 on PI3K δ was under 0.1 µM; at PI3K α it was over 10 µM; against PI3K γ it was under 0.1 µM; against PI3K β, over 10 µM. In addition, in the data set with Balb/c splenic B cells (setting [4]), the EC50 is under 1000 nM.
On to `Cc1csc2nc(Cn3nc(Cl)c4c(N)ncnc43)n(-c3ccccc3C(F)(F)F)c(=O)c12` [Compound 280], for which the half-inhibitory concentration (IC50) on PI3K δ was under 0.1 µM; on PI3K α it was over 10 µM; against PI3K γ, under 1 µM; on PI3K β, over 10 µM. For the same compound, the EC50 in the data set with Balb/c splenic B cells (setting [4]) was under 100 nM.
As for `Cc1csc2nc(Cn3nc(-c4cc(O)cc(F)c4)c4c(N)ncnc43)n(-c3ccccc3F)c(=O)c12` [Compound 258], the IC50 was under 0.1 µM against PI3K δ, over 10 µM at PI3K α, under 0.1 µM against PI3K γ and over 10 µM on PI3K β. For the same compound, the EC50 with Balb/c splenic B cells (setting [4]) was under 100 nM.
With `Cc1ccnc2cc(Cn3nc(-c4cc(O)cc(F)c4)c4c(N)ncnc43)n(-c3ccccc3F)c(=O)c12` [Compound 231], the concentration for half-maximal inhibition (IC50) at PI3K δ is under 0.1 µM; on PI3K α, over 10 µM; against PI3K γ, under 1 µM; against PI3K β, over 10 µM. Moreover, the EC50 in the data set with Balb/c splenic B cells (setting [4]) was under 100 nM.
